# Experimental data taken from patent publication US10774071B2, “PD-1/PD-L1 inhibitors” (Gilead Sciences, Inc., priority 2018, dated 2020).
# pIC50: −log10 of the molar value.
# Target: PD-1/PD-L1 (Homo sapiens (Human), UniProt Q9NZQ7)
# Test: PD-1/PD-L1 biochemical protein-protein interaction assay (ALPHA)
# Assay type: binding
# Conditions: 0.3 nM His tagged PD-L1, 2.5 nM biotinylated Fc-PD-1, readings of 0.064 nM are equal to or less than 0.064 nM, read-out: IC50 PD-L1-PD1
# Experimental: Compounds were tested in biochemical protein-protein interaction assays to determine if they can specifically block the interaction between the extracellular domains of PD-1/PD-L1 or CTLA/CD80. Binding of the protein pairs is measured using a bead based Amplified Luminescent Proximity Homogeneous Assay (ALPHA) platform. […] Final protein concentration in the assays were 0.3 nM (His tagged PD-L1), 2.5 nM (biotinylated Fc-PD-1), 1 nM (His tagged CTLA4) and 1 nM (biotinylated CD80).
# PD-1/PD-L1, sequence (Q9NZQ7 19-238): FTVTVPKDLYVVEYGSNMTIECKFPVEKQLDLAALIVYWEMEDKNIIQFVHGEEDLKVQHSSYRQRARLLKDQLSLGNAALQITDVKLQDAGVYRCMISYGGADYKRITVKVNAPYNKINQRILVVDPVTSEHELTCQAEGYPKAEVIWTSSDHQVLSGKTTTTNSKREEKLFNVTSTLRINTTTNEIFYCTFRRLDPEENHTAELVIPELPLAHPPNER
row,SMILES,pIC50
1,COc1nc(-c2cccc(-c3cccc4c3CC[C@@H]4Nc3nc(OC)c(CN4CC5(C(=O)O)CCC4CC5)cc3C(F)(F)F)c2Cl)ccc1CNC[C@@H]1CCC(=O)N1 [A-1],≥ 10.19
2,"COc1nc(-c2cccc(-c3cccc4c3CC[C@@H]4Nc3nc(OC)c(CN4CC[C@@](C)(C(=O)O)C4)cc3C(F)(F)F)c2Cl)ccc1CNC[C@@H]1CCC(=O)N1 [A-2, (R)-1-((6-(((S)-4-(2-chloro-3-(6-methoxy-5-(((((S)-5-oxopyrrolidin-2-yl)methyl)amino)methyl)pyridin-2-yl)phenyl)-2,3-dihydro-1H-inden-1-yl)amino)-2-methoxy-5-(trifluoromethyl)pyridin-3-yl)methyl)-3-methylpyrrolidine-3-carboxylic acid]",≥ 10.19
3,COc1nc(-c2cccc(-c3cccc4c3CC[C@@H]4Nc3nc(OC)c(CN4CC[C@H](C(=O)O)C4)cc3C(F)(F)F)c2Cl)ccc1CNC[C@@H]1CCC(=O)N1 [A-3],≥ 10.19
4,COc1nc(-c2cccc(-c3cccc4c3CC[C@@H]4Nc3nc(OC)c(CN4CC[C@@H](C(=O)O)C4)cc3C(F)(F)F)c2Cl)ccc1CNC[C@@H]1CCC(=O)N1 [A-4],≥ 10.19
5,COc1nc(-c2cccc(-c3cccc4c3CC[C@@H]4Nc3nc(OC)c(CN4CC5(C(=O)O)CCC4CC5)cc3Cl)c2Cl)ccc1CNC[C@@H]1CCC(=O)N1 [A-5],≥ 10.19
6,COc1nc(-c2cccc(-c3cccc4c3CC[C@@H]4Nc3nc(OC)c(CN4CC(C)(O)C4)cc3Cl)c2Cl)ccc1CNC[C@@H]1CCC(=O)N1 [A-6],9.17
7,COc1nc(-c2cccc(-c3cccc4c3CC[C@@H]4Nc3nc(OC)c(CNC4(C(=O)O)CC4)cc3C(F)(F)F)c2Cl)ccc1CN1CC2(CCC(=O)N2)C1 [A-23],≥ 10.19

# Target: PD-L1 (Homo sapiens (Human), UniProt Q9NZQ7)
# Test: PD-L1/PD-L1 dimerization biochemical protein-protein interaction assay (ALPHA)
# Assay type: binding
# Conditions: 0.5 nM His tagged PD-L1 and 0.5 nM FLAG tagged PD-L1, Table 4A, read-out: AC50 PDL1 Dimer 1 nM
# PD-L1, sequence (Q9NZQ7 19-238): as above
# PD-L1, sequence (Q9NZQ7 19-238): as above
row,SMILES,AC50 [nM]
1,COc1nc(-c2cccc(-c3cccc4c3CC[C@@H]4Nc3nc(OC)c(CN4CC5(C(=O)O)CCC4CC5)cc3C(F)(F)F)c2Cl)ccc1CNC[C@@H]1CCC(=O)N1 [A-1],13.2
2,"COc1nc(-c2cccc(-c3cccc4c3CC[C@@H]4Nc3nc(OC)c(CN4CC[C@@](C)(C(=O)O)C4)cc3C(F)(F)F)c2Cl)ccc1CNC[C@@H]1CCC(=O)N1 [A-2, (R)-1-((6-(((S)-4-(2-chloro-3-(6-methoxy-5-(((((S)-5-oxopyrrolidin-2-yl)methyl)amino)methyl)pyridin-2-yl)phenyl)-2,3-dihydro-1H-inden-1-yl)amino)-2-methoxy-5-(trifluoromethyl)pyridin-3-yl)methyl)-3-methylpyrrolidine-3-carboxylic acid]",13.5
3,COc1nc(-c2cccc(-c3cccc4c3CC[C@@H]4Nc3nc(OC)c(CN4CC[C@H](C(=O)O)C4)cc3C(F)(F)F)c2Cl)ccc1CNC[C@@H]1CCC(=O)N1 [A-3],13.9
4,COc1nc(-c2cccc(-c3cccc4c3CC[C@@H]4Nc3nc(OC)c(CN4CC[C@@H](C(=O)O)C4)cc3C(F)(F)F)c2Cl)ccc1CNC[C@@H]1CCC(=O)N1 [A-4],14.3
5,COc1nc(-c2cccc(-c3cccc4c3CC[C@@H]4Nc3nc(OC)c(CN4CC5(C(=O)O)CCC4CC5)cc3Cl)c2Cl)ccc1CNC[C@@H]1CCC(=O)N1 [A-5],113
6,COc1nc(-c2cccc(-c3cccc4c3CC[C@@H]4Nc3nc(OC)c(CN4CC(C)(O)C4)cc3Cl)c2Cl)ccc1CNC[C@@H]1CCC(=O)N1 [A-6],188

# Same assay, conditions: 0.5 nM His tagged PD-L1 and 0.5 nM FLAG tagged PD-L1, Table 4B, read-out: AC50 PDL1 Dimer 1 nM
row,SMILES,AC50 [nM]
1,COc1nc(-c2cccc(-c3cccc4c3CC[C@@H]4Oc3nc(OC)c(CNC4(C(=O)O)CCOCC4)cc3Cl)c2Cl)ccc1CNC[C@@H]1CCC(=O)N1 [B-15],9.55
2,COc1nc(-c2cccc(-c3cccc4c3CC[C@@H]4Oc3nc(OC)c(CN4CCC[C@@H]4C(=O)O)cc3Cl)c2Cl)ccc1CNC[C@@H]1CCC(=O)N1 [B-16],24.5
3,COc1nc(-c2cccc(-c3cccc4c3CC[C@@H]4Oc3nc(OC)c(CN4CCC[C@@]4(C)C(=O)O)cc3Cl)c2Cl)ccc1CNC[C@@H]1CCC(=O)N1 [B-17],4.29
4,COc1nc(-c2cccc(-c3cccc4c3CC[C@@H]4Oc3nc(OC)c(CN4CCC[C@H]4C(=O)O)cc3Cl)c2Cl)ccc1CNC[C@@H]1CCC(=O)N1 [B-18],17.5
5,COc1nc(-c2cccc(-c3cccc4c3CC[C@@H]4Oc3nc(OCc4cncc(Cl)c4)c(CNC4(C(=O)O)CC4)cc3C(F)(F)F)c2Cl)ccc1CNC[C@@H]1CCC(=O)N1 [B-29],4.08
6,COc1nc(-c2cccc(-c3cccc4c3CC[C@@H]4Oc3nc(OCc4cncc(F)c4)c(CN4CC5(C(=O)O)CCC4CC5)cc3Cl)c2Cl)ccc1CNC[C@@H]1CCC(=O)N1 [B-33],14.7
7,COc1nc(-c2cccc(-c3cccc4c3CC[C@@H]4Oc3nc(OC)c(CNC4(C(=O)O)CCC4)cc3Cl)c2Cl)ccc1CNC[C@@H]1CCC(=O)N1 [B-35],9.06
8,COc1nc(-c2cccc(-c3cccc4c3CC[C@@H]4Oc3nc(OC(F)F)c(CN4CC5(C(=O)O)CCC4CC5)cc3Cl)c2Cl)ccc1CNC[C@@H]1CCC(=O)N1 [B-40],48.6
9,COc1nc(-c2cccc(-c3cccc4c3CC[C@@H]4Oc3nc(OCC#N)c(CN4CC5(C(=O)O)CCC4CC5)cc3Cl)c2Cl)ccc1CNC[C@@H]1CCC(=O)N1 [B-55],10.7

# More lines, now with the values ahead:
row,AC50 [nM],SMILES
1,14.7,CCOc1nc(O[C@H]2CCc3c(-c4cccc(-c5ccc(CNC[C@@H]6CCC(=O)N6)c(OC)n5)c4Cl)cccc32)c(Cl)cc1CN1CC2(C(=O)O)CCC1CC2 [B-46]
2,27.4,CCOc1nc(O[C@H]2CCc3c(-c4cccc(-c5ccc(CNC[C@@H]6CCC(=O)N6)c(OC)n5)c4Cl)cccc32)c(Cl)cc1CN1CC[C@H](C(=O)O)C1 [B-47]
3,31.1,COc1nc(-c2cccc(-c3cccc4c3CC[C@@H]4Oc3nc(OC)c(CN[C@@H]4CCC[C@@H]4C(=O)O)cc3Cl)c2Cl)ccc1CNC[C@@H]1CCC(=O)N1 [B-53]
4,10.2,COc1nc(-c2cccc(-c3cccc4c3CC[C@@H]4Oc3nc(OC)c(CNC4(C(=O)O)CC4)cc3Cl)c2Cl)ccc1CNC[C@@H]1CCC(=O)N1 [B-54]
5,15.3,COc1nc(-c2cccc(-c3cccc4c3CC[C@@H]4Oc3nc(OCc4cncc(C#N)c4)c(CN4CC[C@H](C(=O)O)C4)cc3Cl)c2Cl)ccc1CNC[C@@H]1CCC(=O)N1 [B-65]
6,38.1,COc1nc(-c2cccc(-c3cccc4c3CC[C@@H]4Oc3nc(OCc4cncc(C#N)c4)c(CN4CC[C@@H](C(=O)O)C4)cc3Cl)c2Cl)ccc1CNC[C@@H]1CCC(=O)N1 [B-66]
7,30.3,COc1nc(-c2cccc(-c3cccc4c3CC[C@@H]4Oc3nc(OCc4cncc(C#N)c4)c(CN4CC5(C(=O)O)CCC4CC5)cc3Cl)c2Cl)ccc1CNC[C@@H]1CCC(=O)N1 [B-67]
8,93.8,COc1nc(-c2cccc(-c3cccc4c3CC[C@@H]4Oc3nc(OC)c(CN4CC(C(=O)NS(C)(=O)=O)C4)cc3Cl)c2Cl)ccc1CN1CC(C)(O)C1 [B-75]
9,83.2,COc1nc(-c2cccc(-c3cccc4c3CC[C@@H]4Oc3nc(OC)c(CN4CC[C@@H](C(=O)NS(C)(=O)=O)C4)cc3Cl)c2Cl)ccc1CN1CC(C)(O)C1 [B-76]
10,70.8,COc1nc(O[C@H]2CCc3c(-c4cccc(-c5cnc([C@@H](C)NC[C@H]6CCC(=O)N6)c(OC)n5)c4Cl)cccc32)c(Cl)cc1CN1CC[C@@H](C(=O)O)C1 [B-79]
11,37.3,COc1nc(-c2cccc(-c3cccc4c3CC[C@@H]4Oc3nc(OC)c(CN4CC[C@H](C(=O)NS(C)(=O)=O)C4)cc3Cl)c2Cl)ccc1CNC[C@@H]1CCC(=O)N1 [B-84]
12,103,COc1nc(-c2cccc(-c3cccc4c3CC[C@@H]4Oc3nc(OC)c(CN4CC(C(=O)O)C4)cc3Cl)c2Cl)ccc1CN1CC(C)(O)C1 [B-100]
13,783,CCOC(=O)C1CN(Cc2cc(Cl)c(O[C@H]3CCc4c(-c5cccc(-c6ccc(CNC[C@@H]7CCC(=O)N7)c(OC)n6)c5Cl)cccc43)nc2OC)C1 [B-105]
14,696,COC(=O)[C@@H]1CCN(Cc2cc(Cl)c(O[C@H]3CCc4c(-c5cccc(-c6ccc(CNC[C@@H]7CCC(=O)N7)c(OC)n6)c5Cl)cccc43)nc2OC)C1 [B-108]
15,40.9,COc1nc(-c2cccc(-c3cccc4c3CC[C@@H]4Oc3nc(OC)c(CN4CCC[C@@H](C(=O)NS(C)(=O)=O)C4)cc3Cl)c2Cl)ccc1CNC[C@@H]1CCC(=O)N1 [B-109]
16,97.1,COc1nc(-c2cccc(-c3cccc4c3CC[C@@H]4Oc3nc(OC)c(CN4CC(C(=O)NS(=O)(=O)C(F)F)C4)cc3Cl)c2Cl)ccc1CNC[C@@H]1CCC(=O)N1 [B-110]
17,139,COc1nc(-c2cccc(-c3cccc4c3CC[C@@H]4Oc3nc(OC)c(CN4CC[C@@H](C(=O)NS(=O)(=O)C(F)F)C4)cc3Cl)c2Cl)ccc1CNC[C@@H]1CCC(=O)N1 [B-111]
18,170,CCS(=O)(=O)NC(=O)[C@@H]1CCN(Cc2cc(Cl)c(O[C@H]3CCc4c(-c5cccc(-c6ccc(CNC[C@@H]7CCC(=O)N7)c(OC)n6)c5Cl)cccc43)nc2OC)C1 [B-112]
19,29.9,COc1nc(-c2cccc(-c3cccc4c3CC[C@@H]4Oc3nc(OC)c(CN4CC[C@@H](C(=O)NS(C)(=O)=O)C4)cc3Cl)c2Cl)ccc1CNC[C@@H]1CCC(=O)N1 [B-113]
